# Entries after “also recorded” stand apart in the source; their conditions may differ.
# Columns and labels:
# SERCA2a = biological target: T1, SERCA2a (Mus musculus, UniProt O55143); experiment: NADH-coupled ATPase assay on mouse heart ventricular SR microsomes (mouse SR); format: biochemical; conditions: for SERCA2a mouse SR effect class: 10 μM (3 μM for 12b per Figure 6c), microsomal membrane vesicles; for SERCA2a ATPase activity in mouse SR vesicles (in words): 10 μM, vs 0.1 v/v% DMSO
# T1 construct: host or cells: HL-1 cells
# Excerpt: (§1) Cyclopropanol derivatives have a variety of biological activities including enzyme inhibition and antibacterial and anticancer properties.[47]−[50] However, there have been no published reports on cyclopropanol-containing molecules specifically acting as modulators of RyRs and/or activators of SERCA. To investigate more directly whether the compounds influence the SERCA2 activity, we performed nicotinamide adenine dinucleotide (NADH) fluorescence-coupled ATPase assay according to Radnai et al.[51] In this assay, the change in NADH coenzyme fluorescence reflects the level of the consumption of ATP, which we took as indicator of SERCA2 activity.[51],[52] ATP hydrolysis by SERCA2 is required to pump calcium ions into the SR. We assume that a higher rate of ATP hydrolysis reflects an increase in SERCA2 ATPase activity that leads to a greater pumping of calcium ions into the SR.
# (§2) We observed the rate of NADH oxidation, which is coupled to ATP hydrolysis, by measuring changes in NADH intrinsic fluorescence over time after ATP injection into microsomal membranes enriched in SR vesicles isolated from mouse heart ventricles (mouse SR) and HEK-293T cells (HEK-293 ER). The presence of SERCA2 in mouse SR and HEK-293 ER of isolated microsomal vesicles was confirmed by Western blotting (Figures S5 and S6; for details see Experimental Section). The NADH fluorescence decrease was recorded on a multiwell plate reader TECAN Spark 20M (λex = 380 nm, λem = 470 nm). […] Consistent with our previous experiment on HL-1 cells, we observed a strong decrease in NADH fluorescence reflecting an increase in SERCA2a activity in SR microsomes derived from mouse heart ventricles (n = 3–5) in solutions containing the tested compounds compared to the 0.1 v/v% DMSO sample (Figure 6). […] Similar results were obtained in cardiac SR vesicles from the mouse heart. […] This difference may indicate isoform-specific effects of our compound in HEK-293 cells expressing mostly SERCA2b[53] versus mouse SR vesicles containing mostly SERCA2a.[54] In both experiments, we used CDN1163 as a positive control.
# All animal procedures were performed in accordance with Directive 2010/63/EU of the European Parliament and the Council on the protection of animals used in research as well as Animal Welfare Law of the Federal Republic of Germany (Tierschutzgesetz der Bundesrepublik Deutschland, TierSchG). […] All mice were housed with a 12 h light/dark cycle with free access to food and water. Adult C57BL/6N mice of both genders were sedated with isoflurane in a sealed container and quickly euthanized by cervical dislocation. Heart ventricles were taken out instantly, washed with ice-cold PBS plus complete, cut into smaller pieces, and snap frozen in liquid nitrogen straight away.
# Lysis buffer thawed on ice (10 mM EDTA, 10 mM HEPES, cOmplete, pH 7.4) was added, and the ventricles were homogenized with a Qiagen Cellruptor for 20 s. On ice, an equal volume of restoration buffer (500 mM sucrose, 10 mM HEPES, cOmplete, pH7.2) was added and briefly mixed. The homogenate was centrifuged at 10^4 × g for 20 min at 4 °C. The supernatant was collected and centrifuged again for another hour (10^5 × g at 4 °C). Then, the pellet was carefully resuspended in resuspension buffer (250 mM sucrose, 10 mM HEPES, cOmplete, pH 7.2) on ice by pipetting the solution up and down until fully dissolved. The obtained solution was diluted to a protein concentration of 5 μg/μL with the resuspension buffer, and the aliquots were snap frozen in liquid nitrogen and then stored at −80 °C until usage.
# To determine whether new compounds could increase the SERCA2 activity, HEK-293 microsomes (40–150 μg of total protein) or mouse ventricular microsomes (1–20 μg of total protein) were diluted in 100 μL of the assay buffer used for measurement of SERCA activity (described below) and incubated at room temperature for 5 min prior to the experiments. […]
# SERCA2 = biological target: T2, SERCA2 (Homo sapiens, UniProt P16615); experiment: NADH-coupled ATPase assay on microsomal membrane vesicles from HEK-293T cells (HEK-293 ER); format: biochemical; conditions: for SERCA2 ATPase activity in HEK-293 ER microsomes (in words): 10 μM, vs 0.1 v/v% DMSO; for SERCA2a HEK ER effect class: 10 μM (1 μM for 12b per Figure S7), microsomal membrane vesicles
# T2 construct: endogenous in cells; host or cells: HEK-293T cells, microsomal membrane vesicles (HEK-293 ER)
# Excerpt: as §1, §2
# Isolation of microsomal membrane vesicles from HEK-293T cells (HEK-293 ER) was performed according to Stewart et al.[61] HEK-293T cells were harvested with Trypsin/EDTA, washed twice with ice-cold PBS containing protease inhibitor cocktail (cOmplete, Roche, Mannheim, Germany), and centrifuged 800 × g for 5 min. The pellet was resuspended in ice-cold lysis buffer (1 mM EDTA, 10 mM HEPES, cOmplete, pH 7.4) and incubated on ice for 20 min. After the cells were homogenized with a tight-fitting Dounce homogenizer (10–20 strokes), an equal volume of restoration buffer (500 mM sucrose, 10 mM HEPES, cOmplete, pH 7.2) was added and the cells were homogenized again (10–20 strokes). The homogenate was centrifuged at 10,000 × g for 20 min at 4 °C. The supernatant was collected and centrifuged again for another 2 h (10^5 × g at 4 °C). Then, the pellet was carefully resuspended in resuspension buffer (250 mM sucrose, 10 mM HEPES, cOmplete, pH 7.2) on ice by pipetting the solution up and down until it was fully dissolved. The obtained solution was diluted to a protein concentration of 15–20 μg/μL with the resuspension buffer; the aliquots were snap frozen in liquid nitrogen and stored at −80 °C until usage.
# To determine whether new compounds could increase the SERCA2 activity, HEK-293 microsomes (40–150 μg of total protein) or mouse ventricular microsomes (1–20 μg of total protein) were diluted in 100 μL of the assay buffer used for measurement of SERCA activity (described below) and incubated at room temperature for 5 min prior to the experiments. The measurements of SERCA2 activity were made at 28 °C by using a NADH-coupled ATPase assay as described in Radnai et al. with slight modifications.[51] Briefly, the assay buffer contained 60 mM MOPS, 120 mM KCl, 6 mM MgCl2, 1 mM EGTA, 5 mM NaN3, 0.5 mM phosphoenolpyruvate, and 1.5 mM CaCl2, pH 7.0. […]
# [1] = CytoTox-Glo Cytotoxicity Assay; format: cell-based; conditions: mouse; HL-1 cells, 100 μM solutions, 24 h incubation
# Method: Cell viability was assessed using the CytoTox-Glo Cytotoxicity Assay according to the manufacturing procedure (Promega GmbH). Briefly, HL-1 cells were cultivated for 24 h in black-walled, clear-bottom 96-well microplates (Corning) covered with fibronectin in DMEM, containing different concentrations of the tested compound (10,000 cells/well). Luminescence of a luminogenic peptide substrate was measured before and after the addition of the lysis reagent (digitonin). The viable cell contribution was determined by a subtractive method. 0.1% DMSO-treated cells were taken as a control.
# T2 sequence (P16615 whole entry): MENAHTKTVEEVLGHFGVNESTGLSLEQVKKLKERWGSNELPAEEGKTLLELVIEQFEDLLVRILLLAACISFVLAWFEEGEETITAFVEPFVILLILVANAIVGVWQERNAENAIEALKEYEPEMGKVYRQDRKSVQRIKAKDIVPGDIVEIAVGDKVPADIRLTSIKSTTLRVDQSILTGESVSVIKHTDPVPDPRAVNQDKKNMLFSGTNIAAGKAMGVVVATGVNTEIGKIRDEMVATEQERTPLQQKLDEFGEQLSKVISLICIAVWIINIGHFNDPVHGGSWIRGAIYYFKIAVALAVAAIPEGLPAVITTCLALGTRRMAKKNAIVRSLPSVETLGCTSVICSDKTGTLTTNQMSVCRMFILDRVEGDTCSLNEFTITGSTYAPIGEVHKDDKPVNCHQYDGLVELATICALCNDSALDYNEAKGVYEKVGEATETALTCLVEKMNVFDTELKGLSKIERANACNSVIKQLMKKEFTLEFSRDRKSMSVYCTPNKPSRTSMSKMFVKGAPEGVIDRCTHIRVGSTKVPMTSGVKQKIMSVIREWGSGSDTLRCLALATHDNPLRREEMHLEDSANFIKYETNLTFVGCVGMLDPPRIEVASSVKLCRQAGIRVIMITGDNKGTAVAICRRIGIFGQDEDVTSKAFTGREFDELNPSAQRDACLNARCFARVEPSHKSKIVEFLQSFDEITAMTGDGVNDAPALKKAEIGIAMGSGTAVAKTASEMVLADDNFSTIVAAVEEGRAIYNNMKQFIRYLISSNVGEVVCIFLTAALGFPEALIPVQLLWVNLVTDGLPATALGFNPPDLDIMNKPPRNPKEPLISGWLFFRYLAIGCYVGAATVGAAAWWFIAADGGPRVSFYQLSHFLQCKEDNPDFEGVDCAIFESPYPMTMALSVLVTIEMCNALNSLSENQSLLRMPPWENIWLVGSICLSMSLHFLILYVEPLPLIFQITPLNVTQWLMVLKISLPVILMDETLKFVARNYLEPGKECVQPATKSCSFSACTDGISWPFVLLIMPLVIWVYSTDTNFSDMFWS
# T1 sequence (O55143 1-998 isoform O55143-2): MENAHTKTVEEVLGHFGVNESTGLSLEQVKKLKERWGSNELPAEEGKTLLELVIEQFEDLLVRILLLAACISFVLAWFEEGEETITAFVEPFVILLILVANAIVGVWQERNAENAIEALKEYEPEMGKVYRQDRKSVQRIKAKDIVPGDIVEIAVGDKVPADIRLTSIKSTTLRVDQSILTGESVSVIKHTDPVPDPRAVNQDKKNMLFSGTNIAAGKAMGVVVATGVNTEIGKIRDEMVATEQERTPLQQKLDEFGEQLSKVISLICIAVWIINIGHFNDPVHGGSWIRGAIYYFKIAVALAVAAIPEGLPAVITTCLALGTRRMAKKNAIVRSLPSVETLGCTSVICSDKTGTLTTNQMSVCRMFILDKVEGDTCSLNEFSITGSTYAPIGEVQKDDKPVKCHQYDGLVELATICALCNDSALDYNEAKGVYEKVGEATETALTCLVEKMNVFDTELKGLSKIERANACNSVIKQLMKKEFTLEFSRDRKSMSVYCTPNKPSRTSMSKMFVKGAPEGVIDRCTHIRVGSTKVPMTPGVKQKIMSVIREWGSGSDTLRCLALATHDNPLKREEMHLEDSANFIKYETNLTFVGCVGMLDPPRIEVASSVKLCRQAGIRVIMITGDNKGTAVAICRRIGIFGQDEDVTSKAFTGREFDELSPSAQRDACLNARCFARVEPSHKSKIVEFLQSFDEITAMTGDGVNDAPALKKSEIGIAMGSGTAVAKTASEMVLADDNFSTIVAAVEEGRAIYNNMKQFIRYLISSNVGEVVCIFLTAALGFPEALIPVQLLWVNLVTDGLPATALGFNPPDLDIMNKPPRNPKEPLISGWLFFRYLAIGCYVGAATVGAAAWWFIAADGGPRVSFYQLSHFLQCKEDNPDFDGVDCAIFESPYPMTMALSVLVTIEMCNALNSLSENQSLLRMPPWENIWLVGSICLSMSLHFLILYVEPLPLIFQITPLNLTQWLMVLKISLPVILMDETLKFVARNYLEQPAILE
SMILES,SERCA2a mouse SR effect class (SERCA2a),SERCA2a HEK ER effect class (SERCA2),SERCA2a ATPase activity in mouse SR vesicles (in words) (SERCA2a),"EC50 (SERCA2a; ATPase activity, value, interval) [nM]","EC50 (SERCA2; ATPase activity, value, interval, read-out: SERCA2a HEK ER (EC50)) [nM]",SERCA2 ATPase activity in HEK-293 ER microsomes (in words) (SERCA2),"viability at 24 h, 100 μM [1] [%]"
"COc1ccc2c(c1)CN(CCCCNCCCCC1(O)CC1)CCS2 [11a, 1-(4-((4-(7-Methoxy-2,3-dihydrobenzo[1,4-f]thiazepin-4(5H)-yl)butyl)amino)butyl)cyclopropan-1-ol]",+,–,–,–,–,did not evoke a significant increase in ATPase activity; also recorded: could not detect SERCA2 activation,84
"COc1ccc(OCCCNCCCCC2(O)CC2)cc1 [11b, 1-(4-((3-(4-Methoxyphenoxy)propyl)amino)butyl)cyclopropan-1-ol]",+,–,–,–,–,did not evoke a significant increase in ATPase activity,100
"COc1ccc(SCCCNCCCCC2(O)CC2)cc1 [11c, 1-(4-((3-((4-Methoxyphenyl)thio)propyl)amino)butyl)cyclopropan-1-ol]",+++,+,–,–,–,significant activation of SERCA2 ATPase,73
"COc1ccc2c(c1)CN(CCCCC1(O)CC1)CCS2 [11d, 1-(4-(7-Methoxy-2,3-dihydrobenzo[1,4-f]thiazepin-4(5H)-yl)butyl)cyclopropan-1-ol]",++,+,moderate,–,–,significant activation of SERCA2 ATPase; also recorded: slight,95

# More lines, main results first:
SERCA2a mouse SR effect class (SERCA2a),SERCA2a HEK ER effect class (SERCA2),SERCA2a ATPase activity in mouse SR vesicles (in words) (SERCA2a),"EC50 (SERCA2a; ATPase activity, value, interval) [nM]","EC50 (SERCA2; ATPase activity, value, interval, read-out: SERCA2a HEK ER (EC50)) [nM]",SMILES,SERCA2 ATPase activity in HEK-293 ER microsomes (in words) (SERCA2),"viability at 24 h, 100 μM [1] [%]"
+++,++,–,383,16,"COc1ccc2c(c1)CN(CCCCN(CCCCC1(O)CC1)CCCCC1(O)CC1)CCS2 [12a, 1,1′-(((4-(7-Methoxy-2,3-dihydrobenzo[1,4-f]thiazepin-4(5H)-yl)butyl)azanediyl)bis(butane-4,1-diyl))bis(cyclopropan-1-ol)]",–,80
+,+,–,–,–,"COc1ccc(SCCCN(CCCCC2(O)CC2)CCCCC2(O)CC2)cc1 [12c, 1,1′-(((3-((4-Methoxyphenyl)thio)propyl)azanediyl)bis(butane-4,1-diyl))bis(cyclopropan-1-ol)]",–,90
++,+,improvement of ATPase activity,–,–,"COc1ccc2c(c1)CN(Cc1ccc(C(=O)O)cc1)CCS2 [ARM210, reference compound]",significant activation of SERCA2 ATPase,90

# — paper PMC10726367 (Journal of Medicinal Chemistry, 2023)
